The values that follow come from patent publication US8906925B2, “Pyrido[4,3-B]indoles containing rigid moieties” (Medivation Technologies, Inc., priority 2008, dated 2014).

Test [1] has as its target histamine receptor H1 (Homo sapiens, UniProt P35367). Kind of test: Histamine H1 radioligand binding ([3H]Pyrilamine). As to conditions: read-out: Histamine Binding (1 μM) H1, percent inhibition of specific binding, 1 μM. In short, it runs like this: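 Values are percent inhibition of specific [3H]pyrilamine (1.2 nM) binding with compounds at ≤1 μM (1% DMSO vehicle); 180 min incubation at 25 °C, pH 7.4 Tris buffer, on CHO-expressed human H1 receptor; 1 μM pyrilamine defined nonspecific binding, bound ligand counted after filtration.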

In test [2] the target is human dopamine D2L receptor (Homo sapiens, UniProt P14416). Kind of test: Dopamine D2L radioligand binding ([3H]Spiperone). As to conditions: compound at 1 μM. The text has this: Non-specific binding was estimated in the presence of […] Haloperidol. Receptor proteins were filtered and washed, the filters were then counted to determine [^3H]Spiperone specifically bound. […] Biochemical assay results are presented as the percent inhibition of specific binding in Table 9.

Setting [3] is: […] [3H]Spiperone, read-out: Inhibition of ligand binding, Dopamine D2L (percent inhibition of specific binding).
Setting [4] is: percent inhibition of specific binding, read-out: Inhibition of ligand binding, Dopamine D2L.

Where two headings read alike, the source gives them in different places.

histamine receptor H1, sequence (P35367 whole entry): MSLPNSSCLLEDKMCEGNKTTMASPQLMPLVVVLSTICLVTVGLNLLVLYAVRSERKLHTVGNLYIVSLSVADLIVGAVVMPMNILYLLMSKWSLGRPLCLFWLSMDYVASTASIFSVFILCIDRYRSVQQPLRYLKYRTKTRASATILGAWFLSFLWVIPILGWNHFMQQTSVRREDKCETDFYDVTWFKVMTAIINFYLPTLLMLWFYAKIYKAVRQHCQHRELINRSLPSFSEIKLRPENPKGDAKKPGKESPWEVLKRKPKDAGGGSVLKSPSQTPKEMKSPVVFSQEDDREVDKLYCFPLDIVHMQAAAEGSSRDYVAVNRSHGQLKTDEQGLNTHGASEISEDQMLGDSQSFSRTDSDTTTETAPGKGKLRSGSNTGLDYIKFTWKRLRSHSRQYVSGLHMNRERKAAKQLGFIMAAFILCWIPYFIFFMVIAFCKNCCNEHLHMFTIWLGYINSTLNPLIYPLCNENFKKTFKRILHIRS
human dopamine D2L receptor, sequence (P14416 whole entry): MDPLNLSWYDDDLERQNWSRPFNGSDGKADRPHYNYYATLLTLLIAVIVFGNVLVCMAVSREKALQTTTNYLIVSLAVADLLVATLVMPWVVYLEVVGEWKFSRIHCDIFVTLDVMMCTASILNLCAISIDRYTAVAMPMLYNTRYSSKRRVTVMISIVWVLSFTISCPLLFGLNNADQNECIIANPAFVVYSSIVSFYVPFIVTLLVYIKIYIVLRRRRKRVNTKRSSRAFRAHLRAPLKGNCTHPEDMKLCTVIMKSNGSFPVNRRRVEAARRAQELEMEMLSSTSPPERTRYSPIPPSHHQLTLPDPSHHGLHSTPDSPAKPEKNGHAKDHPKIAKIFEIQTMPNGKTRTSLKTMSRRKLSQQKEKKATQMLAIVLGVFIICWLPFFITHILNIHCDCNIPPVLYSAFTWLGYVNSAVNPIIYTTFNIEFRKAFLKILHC

As to `C/C(=C\n1c2c(c3cc(Cl)ccc31)CN(C)CC2)c1ccsc1` [compound 388, (E)-8-chloro-2-methyl-5-(2-(thiophen-3-yl)prop-1-enyl)-2,3,4,5-tetrahydro-1H-pyrido[4,3-b]indole], the inhibition (commonly the drop in the measured response relative to a control, in per cent) at 1 µM in test [1] worked out at 100%; in test [2] (setting [3]), 99%.
For `C/C(=C\n1c2c(c3cc(Cl)ccc31)CN(C(=O)OCc1ccccc1)CC2)c1ccncc1` [compound 396, (E)-benzyl 8-chloro-5-(2-(pyridin-4-yl)prop-1-enyl)-3,4-dihydro-1H-pyrido[4,3-b]indole-2(5H)-carboxylate], in that order: 15% and 7%.
For `COc1ccc(/C(C)=C/n2c3c(c4cc(Cl)ccc42)CN(C)CC3)cn1` [compound 454, (E)-8-chloro-5-(2-(6-methoxypyridin-3-yl)prop-1-enyl)-2-methyl-2,3,4,5-tetrahydro-1H-pyrido[4,3-b]indole] the same measures were 21% and 80%.
For `Cc1ccc2c(c1)c1c(n2C#Cc2cscn2)CCN(C)C1` [Compound No. 498, 4-((2,8-dimethyl-3,4-dihydro-1H-pyrido[4,3-b]indol-5(2H)-vyl)ethynyl)thiazole], in that order: 65% and 9%.
For `C/C(=C\n1c2c(c3cc(N(C)C)ccc31)CN(C)CC2)c1ccc(F)cc1` [compound 442, (E)-5-(2-(4-fluorophenyl)prop-1-enyl)-N,N,2-trimethyl-2,3,4,5-tetrahydro-1H-pyrido[4,3-b]indol-8-amine], the inhibition at 1 µM in test [1] stood at 29%; in test [2] (setting [3]) it was 77%.
For `CNC(=O)c1ccc(C#Cn2c3c(c4cc(C)ccc42)CN(C)CC3)cc1F` [Compound No. 488, 4-((2,8-dimethyl-3,4-dihydro-1H-pyrido[4,3-b]indol-5(2H)-yl)ethynyl)-2-fluoro-N-methylbenzamide], in that order: 9% and 19%.
Turning to `CNC(=O)c1ccc(/C(F)=C(/c2ccc(C(=O)NC)c(F)c2)n2c3c(c4cc(C)ccc42)CN(C)CC3)cc1F` [compound 423, (E)-4,4′-(1-(2,8-dimethyl-3,4-dihydro-1H-pyrido[4,3-b]indol-5(2H)-yl)-2-fluoroethene-1,2-diyl)bis(2-fluoro-N-methylbenzamide)], the figures for the inhibition at 1 µM in test [1] and in test [2] (setting [3]) were 31% and -10%, respectively.
As to `C/C(=C\n1c2c(c3cc(C)ccc31)CN(CCO)CC2)c1ccncc1` [Compound 332, (E)-2-(8-methyl-5-(2-(pyridin-4-yl)prop-1-enyl)-3,4-dihydro-1H-pyrido[4,3-b]indol-2(5H)-yl)ethanol], the inhibition at 1 µM in test [1] was determined as 23%; in test [2] (setting [4]), 79%.
With `C=CCN1CCc2c(c3cc(Cl)ccc3n2/C=C(\C)c2ccncc2)C1` [compound 406, (E)-2-allyl-8-chloro-5-(2-(pyridin-4-yl)prop-1-enyl)-2,3,4,5-tetrahydro-1H-pyrido[4,3-b]indole], the inhibition at 1 µM in test [1] came out at 74%; in test [2] (setting [3]), 96%.
For the molecule `Cc1ccc2c(c1)c1c(n2C#Cc2ccncn2)CCN(C)C1` [Compound No. 499, 2,8-dimethyl-5-(pyrimidin-4-ylethynyl)-2,3,4,5-tetrahydro-1H-pyrido[4,3-b]indole], the inhibition at 1 µM in test [1] turned out to be 26%; in test [2] (setting [3]), 18%.
With `Cc1ccc2c(c1)c1c(n2C(C)(C)C(O)c2ccccc2)CCN(C)C1` (centres unmarked) [Compound No. 467, 2-(2,8-dimethyl-3,4-dihydro-1H-pyrido[4,3-b]indol-5(2H)-yl)-2-methyl-1-phenylpropan-1-ol], the inhibition at 1 µM in test [1] is 54%; in test [2] (setting [3]) it was 7%.
Consider `Cc1ccc2c(c1)c1c(n2/C=C(\F)c2cscn2)CCN(C)C1` [compound 438, (Z)-4-(2-(2,8-dimethyl-3,4-dihydro-1H-pyrido[4,3-b]indol-5(2H)-yl)-1-fluorovinyl)thiazole], for which the figures for the inhibition at 1 µM in test [1] and in test [2] (setting [3]) were 92% and 17%, respectively.
On to `C/C(=C\n1c2c(c3cc(C)ccc31)CN(CC(F)(F)F)CC2)c1ccncc1` [Compound 291, (E)-8-methyl-5-(2-(pyridin-4-yl)prop-1-enyl)-2-(2,2,2-trifluoroethyl)-2,3,4,5-tetrahydro-1H-pyrido[4,3-b]indole], for which the inhibition at 1 µM in test [1] is -4%; in test [2] (setting [4]), 0%.
Take `C/C(=C\n1c2c(c3cc(Cl)ccc31)CN(CCCC1(c3ccc(F)cc3)OCCO1)CC2)c1ccncc1` [compound 398, (E)-8-chloro-2-(3-(2-(4-fluorophenyl)-1,3-dioxolan-2-yl)propyl)-5-(2-(pyridin-4-yl)prop-1-enyl)-2,3,4,5-tetrahydro-1H-pyrido[4,3-b]indole]: the results for the inhibition at 1 µM in test [1] and in test [2] (setting [3]) were 95% and 97%, respectively.
Consider `C/C=C(/Cn1c2c(c3cc(Cl)ccc31)CN(C)CC2)c1ccncc1` [Compound No. 362, (E)-8-chloro-2-methyl-5-(2-(pyridin-4-yl)but-2-enyl)-2,3,4,5-tetrahydro-1H-pyrido[4,3-b]indole], for which the inhibition at 1 µM in test [1] is 98%; in test [2] (setting [3]) it was 79%.
As to `CSc1ccc(/C(C)=C/n2c3c(c4cc(C)ccc42)CN(C)CC3)cc1` [Compound No. 459, (E)-2,8-dimethyl-5-(2-(4-(methylthio)phenyl)prop-1-enyl)-2,3,4,5-tetrahydro-1H-pyrido[4,3-b]indole], the inhibition at 1 µM in test [1] is 53%; in test [2] (setting [3]) it was 71%.
Turning to `CN1CCc2c(c3cc(Cl)ccc3n2C#Cc2ccc(C(F)(F)F)nc2)C1` [Compound No. 486, 8-chloro-2-methyl-5-((6-(trifluoromethyl)pyridin-3-yl)ethynyl)-2,3,4,5-tetrahydro-1H-pyrido[4,3-b]indole], the inhibition at 1 µM is 22% in test [1] and 14% in test [2] (setting [3]).
For `Cc1ccc2c(c1)c1c(n2/C=C(\c2ccccc2)c2ccncc2)CCN(C)C1` [compound 455, (E)-2,8-dimethyl-5-(2-phenyl-2-(pyridin-4-yl)vinyl)-2,3,4,5-tetrahydro-1H-pyrido[4,3-b]indole] the same measures were 13% and 56%.
As to `Cc1ccc2c(c1)c1c(n2C#Cc2ccncc2)CCN(C)C1` [Compound No. 495, 2,8-dimethyl-5-(pyridin-4-ylethynyl)-2,3,4,5-tetrahydro-1H-pyrido[4,3-b]indole], the inhibition at 1 µM in test [1] is 52%; in test [2] (setting [3]), 58%.
On to `CC(=O)N(C)c1ccc2c(c1)c1c(n2/C=C(\C)c2ccc(F)cc2)CCN(C)C1` [compound 443, (E)-N-(5-(2-(4-fluorophenyl)prop-1-enyl)-2-methyl-2,3,4,5-tetrahydro-1H-pyrido[4,3-b]indol-8-yl)-N-methylacetamide], for which the results for the inhibition at 1 µM in test [1] and in test [2] (setting [3]) were -5% and 92%, respectively.
For `Cc1ccc2c(c1)c1c(n2CC(O)(c2ccccc2)c2ccccc2)CCN(C)C1` [Compound No. 465, 2-(2,8-dimethyl-3,4-dihydro-1H-pyrido[4,3-b]indol-5(2H)-yl)-1,1-diphenylethanol], in that order: -14% and 21%.
As to `C/C(=C\n1c2c(c3cc(Cl)ccc31)CN(C)CC2)c1cnccn1` [Compound 333, (E)-8-chloro-2-methyl-5-(2-(pyrazin-2-yl)prop-1-enyl)-2,3,4,5-tetrahydro-1H-pyrido[4,3-b]indole], the inhibition at 1 µM in test [1] amounted to 29%; in test [2] (setting [4]) it was 51%.
For `CC(C)=C(Cn1c2c(c3cc(C)ccc31)CN(C)CC2)c1ccncc1` [Compound No. 358, 2,8-dimethyl-5-(3-methyl-2-(pyridin-4-yl)but-2-enyl)-2,3,4,5-tetrahydro-1H-pyrido[4,3-b]indole], the inhibition at 1 µM in test [1] stood at 47%; in test [2] (setting [3]), 14%.
Turning to `C/C(=C\n1c2c(c3cc(Cl)ccc31)CN(C)CC2)c1ccncn1` [Compound 289, (E)-8-chloro-2-methyl-5-(2-(pyrimidin-4-yl)prop-1-enyl)-2,3,4,5-tetrahydro-1H-pyrido[4,3-b]indole], the inhibition at 1 µM turned out to be 34% in test [1] and 90% in test [2] (setting [4]).
Take `C/C(=C\n1c2c(c3cc(NC4CC4)ccc31)CN(C)CC2)c1ccncc1` [compound 447, (E)-N-cyclopropyl-2-methyl-5-(2-(pyridin-4-yl)prop-1-enyl)-2,3,4,5-tetrahydro-1H-pyrido[4,3-b]indol-8-amine]: the inhibition at 1 µM in test [1] was -1%; in test [2] (setting [3]), 59%.
Turning to `CC(C)c1ccc2c3c(n(CC(C)(O)c4ccncc4)c2c1)CCN(C)C3` (centres unmarked) [Compound 344, 1-(7-isopropyl-2-methyl-3,4-dihydro-1H-pyrido[4,3-b]indol-5(2H)-yl)-2-(pyridin-4-yl)propan-2-ol], the inhibition at 1 µM in test [1] was determined as 7%; in test [2] (setting [4]) it was 10%.
`CC(=O)CN1CCc2c(c3cc(C)ccc3n2/C=C(\C)c2ccncc2)C1` [compound 427, (E)-1-(8-methyl-5-(2-(pyridin-4-yl)prop-1-enyl)-3,4-dihydro-1H-pyrido[4,3-b]indol-2(5H)-yl)propan-2-one]: the inhibition at 1 µM in test [1] came out at 1%; in test [2] (setting [3]), 17%.
As to `C/C(=C\n1c2c(c3cc(C)ccc31)CN(C)CC2)c1cncnc1` [Compound 293, (E)-2,8-dimethyl-5-(2-(pyrimidin-5-yl)prop-1-enyl)-2,3,4,5-tetrahydro-1H-pyrido[4,3-b]indole], the inhibition at 1 µM in test [1] is 9%; in test [2] (setting [4]), 31%.
